Test results taken from patent US20260325538A1, “THERAPY” (priority 2023, published 2026).

Assays:
[1] = tested on: Pseudomonas aeruginosa ST773 (NDM-1, OXA-395, PDC-16); experiment: Checkerboard MIC, fixed concentration of sBLI (Examples 18-23); format: cell-based
Text: The antibiotics and serine β-lactamase-inhibitors (sBLIs) were purchased from the following suppliers: Ceftazidime (CAZ): Sigma-Aldrich; Cefepime (FEP): Sigma-Aldrich; Cefpodoxime (CEFP): MedChemExpress; Sulbactam (SUL): Sigma-Aldrich Avibactam (AVI): Biosynth; Vaborbactam (VAB): ABCR; Tazobactam (TAZ): Sigma-Aldrich; Taniborbactam (TAN): Sigma-Aldrich.
In each of Examples 3-23, the compound of Example 26 of WO 2018/033719 was employed as the zinc chelator. The following abbreviations are used in these examples: sBLI means serine-β-lactamase inhibitor; CFU means colony-forming unit, which is a group of microbes that grows from a single cell on a petri plate; DMSO means dimethyl sulfoxide; MHB means Mueller-Hinton broth; caMHB means cation-adjusted Mueller-Hinton broth; MIC means minimum inhibitory concentration—the lower the MIC, the more efficient the combination against the respective bacterial strain.
General Protocol 2 Used in Examples 11-23 Employing a Fixed Concentration of sBLI within Each Experiment:
(§1) Antimicrobial susceptibility testing (AST) by broth microdilution (MIC determination) was performed according to The European Committee on Antimicrobial Susceptibility Testing (EUCAST) guidelines (see Reading guide for broth microdilution Version 5.0, 2024: https://www.eucast.org).
Sterile clear round bottom polystyrene (non-treated) 96-well microplates (Corning 3788) were used for making serial two-fold dilutions of the antibiotic in cation-adjusted Mueller Hinton II broth (caMHB; Thermo Scientific, T3462, containing 29.4 μM Zn^2+ or MILLIPORE, 90922-500G, containing 5.6 μM Zn^2+), across the columns of the microtiter plate (128-0.06 μg/mL; columns 1-12).
The checkerboard plates were all modified by adding a serine β-lactamase inhibitor (sBLI) at a fixed concentration of 16 μg/mL. Additionally, the zinc chelator was added at various fixed concentrations. Samples were mixed so that all plates contained a control containing antibiotic alone (no sBLI, no zinc chelator), a sample containing antibiotic and sBLI (double combination; no zinc chelator), and a sample containing antibiotic, sBLI and zinc chelator (triple combination). All test wells used in each plate contained growth medium (caMHB), and inoculated bacteria at a final inoculum between 3-7×10^5 CFU/mL. […] Synergy for the triple combination (antibiotic, sBLI, and zinc chelator) was defined as when the MIC in any of the rows containing the zinc chelator in combination with antibiotic and sBLI (triple combination), was lower than for antibiotic alone and lower than for the antibiotic and sBLI double combination.
An X in rows 1-4 in the table indicates growth of the bacterial inoculum, while a blank cell indicates no growth. Concentrations (μg/mL) of CAZ are given in row 0. AVI and the zinc chelator were added in fixed concentrations (AVI at 16 μg/mL in rows 2-4, zinc chelator at 16 μg/mL in row 3 and at 8 μg/mL in row 4). As a control, the effect of CAZ alone was tested (row 1). All wells contained bacterial growth medium (caMHB, 29.4 μM Zn^2+) and were inoculated with the test bacterium. The grey cells indicate the CAZ MIC.
An X in rows 1-4 in the table indicates growth of the bacterial inoculum, while a blank cell indicates no growth. Concentrations (μg/mL) of FEP are given in row 0. SUL and the zinc chelator were added in fixed concentrations (SUL at 16 μg/mL in rows 2-4, zinc chelator at 16 μg/mL in row 3 and at 8 μg/mL in row 4). As a control, the effect of FEP alone was tested (row 1). All wells contained bacterial growth medium (caMHB, 29.4 μM Zn^2+) and were inoculated with the test bacterium. The grey cells indicate the FEP MIC.
An X in rows 1-5 in the table indicates growth of the bacterial inoculum, while a blank cell indicates no growth. Concentrations (μg/mL) of CAZ are given in row 0. AVI and the zinc chelator were added in fixed concentrations (AVI at 16 μg/mL in rows 2-5, zinc chelator at 16 μg/mL in row 3, at 8 μg/mL in row 4, and at 4 μg/mL in row 5). […]

[2] = tested on: various bacterial strains harbouring resistance enzymes; experiment: MIC determination, checkerboard assays (summary statements); format: cell-based; settings: Examples 3-23
Method: Thus, in most of the experiments, a Fractional Inhibitory Concentration Index (FICI) could not be calculated, and the conclusion of synergy was made through visual reading of the bacterial growth in the wells in the combination experiment.
as §1
Sterile clear round bottom polystyrene (non-treated) 96-well microplates (Corning 3788) were used for making serial two-fold dilutions of the antibiotic and the serine sBLI in cation-adjusted Mueller Hinton II broth (caMHB; Thermo Scientific, T3462, containing 29.4 μM Zn^2+), across the columns of the microtiter plate (256-0.06 μg/mL; columns 1-12). The checkerboard plates were all made by keeping the sBLI at a fixed ratio relative to antibiotic (absolute concentrations of each, in μg/mL) to all wells containing sample in each plate. Additionally, a set of samples were included in each test plate, where the zinc chelator was added, at various fixed concentrations, of 16 μg/mL, 8 μg/mL and/or 4 μg/mL (as specified in each Example). All sample wells contained growth medium (caMHB), and inoculated bacteria at a final inoculum between 3-7×10^5 CFU/mL. […]

[3] = tested on: many strains of Acinetobacter baumannii; settings: in combination with meropenem; cited from earlier work

With CN(C[C@H](O)[C@@H](O)[C@H](O)[C@H](O)CO)C(=O)c1ccc(CN(Cc2ccccn2)Cc2ccccn2)nc1 [zinc chelator] the “synergy with the zinc chelator” value ([1]; zinc chelator 4 μg/mL, with FEP and AVI 16 μg/mL, caMHB 5.6 μM Zn2+) was “Synergy”, the “synergy with the zinc chelator” value ([1]; zinc chelator 4 μg/mL, with FEP and SUL 16 μg/mL, caMHB 5.6 μM Zn2+) was “Synergy” and the “synergy with the zinc chelator” value ([1]; zinc chelator 8 μg/mL, with CAZ and AVI 16 μg/mL, caMHB 5.6 μM Zn2+) was “Synergy”. The “synergy with the zinc chelator” value ([1]; zinc chelator 8 μg/mL, with CAZ and AVI 16 μg/mL, caMHB 29.4 μM Zn2+) was “Synergy”, the “synergy with the zinc chelator” value ([1]; zinc chelator 8 μg/mL, with FEP and AVI 16 μg/mL, caMHB 5.6 μM Zn2+) was “Synergy” and the “synergy with the zinc chelator” value ([1]; zinc chelator 8 μg/mL, with FEP and SUL 16 μg/mL, caMHB 5.6 μM Zn2+) was “Synergy”. For the same molecule, the “synergy with the zinc chelator” value ([1]; zinc chelator 8 μg/mL, with FEP and TAZ 16 μg/mL, caMHB 5.6 μM Zn2+) was “Synergy”, the “synergy with the zinc chelator” value ([1]; zinc chelator 16 μg/mL, with CAZ and AVI 16 μg/mL, caMHB 5.6 μM Zn2+) was “Synergy” and the “synergy with the zinc chelator” value ([1]; zinc chelator 16 μg/mL, with CAZ and AVI 16 μg/mL, caMHB 29.4 μM Zn2+) was “Synergy”. For the same molecule, the “synergy with the zinc chelator” value ([1]; zinc chelator 16 μg/mL, with FEP and AVI 16 μg/mL, caMHB 5.6 μM Zn2+) was “Synergy”, the “synergy with the zinc chelator” value ([1]; zinc chelator 16 μg/mL, with FEP and SUL 16 μg/mL, caMHB 5.6 μM Zn2+) was “Synergy” and the “synergy with the zinc chelator” value ([1]; zinc chelator 16 μg/mL, with FEP and SUL 16 μg/mL, caMHB 29.4 μM Zn2+) was “Synergy”. For the same molecule, the “synergy with the zinc chelator” value ([1]; zinc chelator 16 μg/mL, with FEP and TAZ 16 μg/mL, caMHB 5.6 μM Zn2+) was “Synergy”, the intrinsic antibiotic effect [2] was “neither the zinc chelator nor the sBLI have intrinsic antibiotic effect” and the “effect of combination with meropenem” value [3] was “poor effect”.
